Results reported in ChEMBL document CHEMBL1145068 (J Med Chem, 2003).

How the values were obtained:
D(2) dopamine receptor = D(2) dopamine receptor (Rattus norvegicus, UniProt P61169); assay: Binding affinity for rat striatum Dopamine receptor D2 by [3H]spiperone displacement.; format: tissue-based
D(3) dopamine receptor = D(3) dopamine receptor (Rattus norvegicus, UniProt P19020); assay: biochemical
Description: Binding affinity for rat striatum Dopamine receptor D3 (sf9 cells) by [3H]7-OH-DPAT displacement.

D(1A) dopamine receptor = D(1A) dopamine receptor (Rattus norvegicus, UniProt P18901); assay: Binding affinity for rat striatum Dopamine receptor D1 by […] displacement.; format: tissue-based
[1] = biological target: T1, Alpha-1A adrenergic receptor (Rattus norvegicus, UniProt P43140); assay: Binding affinity for rat cortex alpha-1 adrenergic receptor by inhibition of [3H]prazosin binding
T1 sequence (P43140 whole entry): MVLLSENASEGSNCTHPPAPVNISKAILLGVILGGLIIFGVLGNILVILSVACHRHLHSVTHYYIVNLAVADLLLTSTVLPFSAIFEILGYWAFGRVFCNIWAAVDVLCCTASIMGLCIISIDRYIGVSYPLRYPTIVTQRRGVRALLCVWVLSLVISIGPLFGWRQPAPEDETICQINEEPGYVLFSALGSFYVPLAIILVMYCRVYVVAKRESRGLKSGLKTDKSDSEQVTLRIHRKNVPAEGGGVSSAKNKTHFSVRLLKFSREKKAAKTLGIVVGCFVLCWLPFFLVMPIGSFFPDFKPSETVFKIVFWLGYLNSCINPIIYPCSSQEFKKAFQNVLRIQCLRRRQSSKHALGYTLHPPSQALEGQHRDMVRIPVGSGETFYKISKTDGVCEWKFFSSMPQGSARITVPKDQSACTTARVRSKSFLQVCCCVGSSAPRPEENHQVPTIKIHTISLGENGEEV

[2] = biological target: T2, Alpha-2A adrenergic receptor (Rattus norvegicus, UniProt P22909); assay: Binding affinity for rat cortex Alpha-2 adrenergic receptor was determined using [3H]-RX 81002 binding
T2 sequence (P22909 whole entry): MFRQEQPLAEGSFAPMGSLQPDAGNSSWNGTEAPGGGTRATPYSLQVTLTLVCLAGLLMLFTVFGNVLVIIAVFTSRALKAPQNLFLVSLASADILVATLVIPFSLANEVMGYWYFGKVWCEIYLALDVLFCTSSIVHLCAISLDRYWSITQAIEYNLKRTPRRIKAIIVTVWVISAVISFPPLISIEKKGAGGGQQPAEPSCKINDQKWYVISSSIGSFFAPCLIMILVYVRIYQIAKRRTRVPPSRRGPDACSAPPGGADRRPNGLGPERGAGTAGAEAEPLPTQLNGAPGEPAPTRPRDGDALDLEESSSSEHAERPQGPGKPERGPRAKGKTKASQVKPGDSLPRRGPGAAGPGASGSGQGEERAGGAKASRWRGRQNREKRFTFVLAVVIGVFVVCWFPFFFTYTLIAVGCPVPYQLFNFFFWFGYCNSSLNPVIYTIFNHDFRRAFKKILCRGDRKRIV

[3] = biological target: T3, 5-hydroxytryptamine receptor 1A (Rattus norvegicus, UniProt P19327); assay: Binding affinity for rat hippocampus 5-hydroxytryptamine 1A receptor by inhibition of [3H]8-OH-DPAT binding; format: tissue-based
T3 sequence (P19327 whole entry): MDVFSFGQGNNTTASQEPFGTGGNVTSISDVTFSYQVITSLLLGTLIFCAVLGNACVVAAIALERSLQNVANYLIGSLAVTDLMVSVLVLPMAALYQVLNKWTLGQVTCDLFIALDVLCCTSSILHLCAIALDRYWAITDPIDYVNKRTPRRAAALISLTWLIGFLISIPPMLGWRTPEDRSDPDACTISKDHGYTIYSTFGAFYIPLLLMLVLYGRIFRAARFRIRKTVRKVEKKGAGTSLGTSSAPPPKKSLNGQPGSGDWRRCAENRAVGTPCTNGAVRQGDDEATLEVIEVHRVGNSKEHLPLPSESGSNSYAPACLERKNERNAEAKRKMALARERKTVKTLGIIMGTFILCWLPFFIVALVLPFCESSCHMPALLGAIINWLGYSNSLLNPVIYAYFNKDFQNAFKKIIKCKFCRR

[4] = biological target: D(3) dopamine receptor (Homo sapiens) (UniProt P35462); assay: Maximal stimulation reached was evaluated by using [35S]- GTP-gamma S radioligand; format: functional
[5] = biological target: T2, Alpha-2A adrenergic receptor; assay: Binding affinity for rat cortex alpha-2 adrenergic receptor was determined using [3H]-RX 81002 binding

Sequence of D(2) dopamine receptor (P61169 whole entry): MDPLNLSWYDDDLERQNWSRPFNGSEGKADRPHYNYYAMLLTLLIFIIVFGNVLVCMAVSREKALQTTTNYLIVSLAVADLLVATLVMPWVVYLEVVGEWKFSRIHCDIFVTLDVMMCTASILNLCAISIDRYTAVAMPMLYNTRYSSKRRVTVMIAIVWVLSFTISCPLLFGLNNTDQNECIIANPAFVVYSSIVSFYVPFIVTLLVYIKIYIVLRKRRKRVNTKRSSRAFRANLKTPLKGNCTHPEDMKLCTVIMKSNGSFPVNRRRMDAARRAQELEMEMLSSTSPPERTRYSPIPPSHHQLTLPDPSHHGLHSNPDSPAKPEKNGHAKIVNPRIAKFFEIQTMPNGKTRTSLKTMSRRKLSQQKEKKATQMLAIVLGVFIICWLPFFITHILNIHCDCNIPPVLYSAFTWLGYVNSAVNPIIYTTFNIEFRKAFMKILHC
Sequence of D(1A) dopamine receptor (P18901 whole entry): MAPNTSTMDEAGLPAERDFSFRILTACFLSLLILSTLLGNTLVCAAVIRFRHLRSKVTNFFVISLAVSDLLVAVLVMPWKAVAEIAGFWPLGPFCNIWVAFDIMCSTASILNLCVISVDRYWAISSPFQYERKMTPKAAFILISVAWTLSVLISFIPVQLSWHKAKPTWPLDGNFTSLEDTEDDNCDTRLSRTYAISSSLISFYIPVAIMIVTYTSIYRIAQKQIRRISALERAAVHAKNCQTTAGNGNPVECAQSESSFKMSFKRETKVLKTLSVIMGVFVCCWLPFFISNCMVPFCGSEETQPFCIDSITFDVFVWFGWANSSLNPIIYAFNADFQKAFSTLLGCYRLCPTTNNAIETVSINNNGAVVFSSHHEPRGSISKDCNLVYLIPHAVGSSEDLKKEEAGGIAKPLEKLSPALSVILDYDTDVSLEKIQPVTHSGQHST
Sequence of D(3) dopamine receptor (P19020 whole entry): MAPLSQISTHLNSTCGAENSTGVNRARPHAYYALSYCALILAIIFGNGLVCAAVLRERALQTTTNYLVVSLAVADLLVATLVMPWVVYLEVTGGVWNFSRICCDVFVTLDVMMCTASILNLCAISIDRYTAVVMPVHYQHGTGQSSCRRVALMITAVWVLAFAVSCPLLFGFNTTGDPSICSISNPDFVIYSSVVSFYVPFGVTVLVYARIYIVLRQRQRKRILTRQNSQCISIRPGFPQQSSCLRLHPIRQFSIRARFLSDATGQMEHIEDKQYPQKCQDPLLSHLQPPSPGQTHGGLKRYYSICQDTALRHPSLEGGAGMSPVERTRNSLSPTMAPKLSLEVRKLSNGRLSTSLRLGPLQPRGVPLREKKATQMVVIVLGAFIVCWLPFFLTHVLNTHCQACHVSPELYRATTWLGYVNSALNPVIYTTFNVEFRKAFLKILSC
Sequence of D(3) dopamine receptor (Homo sapiens) (P35462 whole entry): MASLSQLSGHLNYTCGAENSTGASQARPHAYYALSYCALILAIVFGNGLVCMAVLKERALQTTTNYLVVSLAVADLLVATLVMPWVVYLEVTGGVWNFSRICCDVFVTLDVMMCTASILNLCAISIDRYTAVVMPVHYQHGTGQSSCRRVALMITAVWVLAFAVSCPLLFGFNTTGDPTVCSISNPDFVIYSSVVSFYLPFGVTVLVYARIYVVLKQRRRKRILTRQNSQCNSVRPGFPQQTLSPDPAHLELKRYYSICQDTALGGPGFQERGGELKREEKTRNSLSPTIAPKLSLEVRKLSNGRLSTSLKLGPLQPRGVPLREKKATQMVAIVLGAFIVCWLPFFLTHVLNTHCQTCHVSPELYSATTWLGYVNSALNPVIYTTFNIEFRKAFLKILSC

SMILES	Ki (D(2) dopamine receptor)	Ki (D(3) dopamine receptor)	Ki (D(1A) dopamine receptor)	Ki [1]	Ki [2]	Ki [3]	Activity [4]	Ki [5]
O=C(NCCCCN1CCN(c2ccc(Cl)c(Cl)c2)CC1)c1cc2ccccc2o1	333 nM	7.8 nM	1660 nM	–	–	–	–	–
COc1ccccc1N1CCN(CCCCNC(=O)c2cnc3ccccc3n2)CC1	84 nM	11 nM	1440 nM	–	–	–	–	–
COc1ccccc1N1CCN(CCCCN2CCn3c(cc4ccccc43)C2=O)CC1	45 nM	0.87 nM	1570 nM	33 nM	89 nM	4.9 nM	–	–
O=C(NCCCCN1CCN(c2ccc(Cl)cc2Cl)CC1)c1cc2ccccc2cn1	342 nM	0.66 nM	7750 nM	629 nM	1050 nM	1050 nM	–	–
NCCc1c[nH]c2ccc(O)cc12	–	–	–	–	–	–	30 µM	–
COc1ccccc1N1CCN(CC2CCN(C(=O)c3cc4ccccc4o3)CC2)CC1	244 nM	74 nM	2680 nM	–	–	–	–	–
COc1ccccc1N1CCN(CCCCNC(=O)[C@@H]2Cc3ccccc3CN2)CC1	–	9.2 nM	–	–	–	–	–	–
O=C(NCCCCN1CCN(c2ccc(Cl)cc2Cl)CC1)c1cc2ccccc2[nH]1	–	–	> 10000 nM	547 nM	> 10000 nM	–	–	–
COc1ccccc1N1CCN(CCCCNC(=O)c2ccc3ccccc3c2)CC1 [BP-897]	–	–	–	–	83 nM	–	–	–
O=C(NCCCCN1CCN(c2ccc(Cl)cc2Cl)CC1)c1cc2cc(Cl)ccc2[nH]1	–	0.38 nM	> 10000 nM	8100 nM	> 10000 nM	–	–	–
O=C(NCCCCN1CCN(c2ccc(Cl)cc2Cl)CC1)c1cc2ccccc2o1	409 nM	0.41 nM	7660 nM	779 nM	1890 nM	908 nM	–	–
COc1ccccc1N1CCN(CCCCNC(=O)c2cc3ccccc3cn2)CC1	75 nM	0.49 nM	1480 nM	5.8 nM	–	3.12 nM	–	76 nM
COc1ccccc1N1CCN(CCNCc2coc(-c3cc4ccccc4o3)n2)CC1	518 nM	759 nM	> 10000 nM	–	–	–	–	–
COc1ccccc1N1CCN(CCCCNC(=O)[C@H]2Cc3ccccc3CN2)CC1	–	4.3 nM	–	–	–	–	–	–
COc1ccccc1N1CCN(CCNCc2coc(-c3ccc4ccccc4c3)n2)CC1	86 nM	295 nM	> 10000 nM	–	–	–	–	–
N#Cc1ccc(N2CCN(CCCCNC(=O)c3cc4ccccc4o3)CC2)cc1	–	41.3 nM	–	–	–	–	–	–
COc1ccccc1N1CCN(CCCCNC(=O)c2cc3ccccc3o2)CC1	–	–	–	36 nM	54 nM	–	–	–
COc1ccccc1N1CCN(CCCCNC(=O)c2ccc3ccccc3n2)CC1	83 nM	4.8 nM	1350 nM	–	–	–	–	–
COc1ccccc1N1CCN(CCCCNC(=O)c2cc3ccccc3[nH]2)CC1	160 nM	2.9 nM	970 nM	666 nM	76 nM	11.8 nM	–	–
COc1ccccc1N1CCN(CCCCNC(=O)c2nc3ccccc3n3cccc23)CC1	59 nM	28 nM	778 nM	–	–	–	–	–
